Data on one compound can be found in patent US20160025704A1, “METHODS FOR IDENTIFYING NEUROPROTECTIVE PKC ACTIVATORS” (priority 2013, published 2016).

One assay deals with T1, PKC-ε (Mus musculus, UniProt P16054).
T1 construct: from tissue; host or cells: brain of C57BL/6 mice
T1 sequence (P16054 1-737): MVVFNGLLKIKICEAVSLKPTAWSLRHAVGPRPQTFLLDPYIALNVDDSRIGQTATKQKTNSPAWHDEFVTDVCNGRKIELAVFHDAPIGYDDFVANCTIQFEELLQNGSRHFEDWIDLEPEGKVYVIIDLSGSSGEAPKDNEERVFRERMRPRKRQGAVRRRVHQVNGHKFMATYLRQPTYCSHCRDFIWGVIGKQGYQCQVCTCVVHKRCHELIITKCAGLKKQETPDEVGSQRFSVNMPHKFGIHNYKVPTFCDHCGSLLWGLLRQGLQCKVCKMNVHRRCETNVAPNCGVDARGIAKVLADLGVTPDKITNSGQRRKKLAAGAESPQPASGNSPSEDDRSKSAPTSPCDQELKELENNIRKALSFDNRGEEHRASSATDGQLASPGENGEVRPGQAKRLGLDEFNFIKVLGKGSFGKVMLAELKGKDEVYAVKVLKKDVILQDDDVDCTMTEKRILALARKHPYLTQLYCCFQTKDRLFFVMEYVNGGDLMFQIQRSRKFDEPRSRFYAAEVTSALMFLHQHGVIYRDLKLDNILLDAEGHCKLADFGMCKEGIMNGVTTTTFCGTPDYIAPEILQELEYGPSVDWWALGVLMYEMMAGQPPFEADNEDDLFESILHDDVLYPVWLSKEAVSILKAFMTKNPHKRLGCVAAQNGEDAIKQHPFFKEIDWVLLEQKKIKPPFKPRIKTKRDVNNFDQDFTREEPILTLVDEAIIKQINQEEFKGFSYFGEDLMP
The experiment in a line: PKC-ε activation and translocation by bryostatin in mouse brain (Western blot). The class given is in vivo. The procedure:
Protocol: Male C57BL/6M mice (15-20 g, Charles River) were acclimatized for 7-8 days in a non-enriched environment, three mice per cage. Bryostatin (Tocris) was dissolved in DMSO, diluted into 0.9% saline, and injected into the tail vein at doses of 10 and 15 μg/m2. After a fixed period, the mice were anesthetized with CO2 and the brain was frozen on dry ice. Blood was mixed with 0.2 ml 1 mM EDTA in PBS, centrifuged at 100 g for 30 min, and plasma was frozen on dry ice. In some experiments, blood lymphocyte fractions were collected using Ficoll-Paque Plus reagent using the procedure recommended by the manufacturer. All animal procedures were approved by the institutional IACUC.
Activation and translocation of PKC-ε were measured by Western blotting after subcellular fractionation into cytosol and particulate fractions. Homogenates were centrifuged at 100,000×g for 20 min and cytosolic and particulate fractions were separated on 4-20% Tris-glycine SDS polyacrylamide gels, blotted onto nitrocellulose, and probed with isozyme specific antibodies. The blots were photographed in a GE ImageQuant at 16 bits/pixel and analyzed by vertical strip densitometry using Imal Unix software.
Bryostatin was injected into the tail vein of C57BL/6N mice at 10 and 15 μg/m2 (equivalent to 3.50 and 5.25 μg/kg), and brain PKC-ε concentration was measured using Western blots. Brain PKC-ε activation was biphasic, peaking at 0.5 h and slowly declined toward resting levels, even though bryostatin levels continued to increase. This is consistent with the short-lived activation of PKC established previously. […] The bryostatin concentration at 0.5 h was 0.029 nM.
The results of a dose dependence study of activation of PKCα and PKCε translocation by bryostatin, are shown below in FIG. 4 (measured 30 minutes after administration), and FIG. 5 (measured 120 minutes after administration). The effect of bryostatin on brain PKC translocation (an indicator of enzymatic activation) was also biphasic, with maximal effects observed at doses between 5 and 10 μg/m2.
(In general: In western blotting, separated proteins are transferred to a membrane and probed.)

In assay [1] the test system is healthy brown Norway rats. The experiment in a line: Mushroom spine formation in healthy rats after water maze training. The assay is classed as in vivo. The conditions noted are these: given during water maze training. An excerpt: Protocol: Non-diseased, healthy brown Norway rats (at 4-5 months old) were used in this study. Bryostatin enhanced the formation of mushroom spines in healthy rats after water maze training as shown in a-e. Memory retention after water maze training (4 swims per days for 5 days) increased the number of mushroom dendritic spine and synapses with (e) perforated postsynaptic densities (PSDs), but not with macular PSDs (d). […] Nv=naîve controls; Sw=swim controls; Mz=water maze treatment; and Mz/Br=water maze treatment plus bryostatin treatment.

The subject of another assay is Human primary neurons. Nature of the assay: ASPD-induced apoptosis in human primary neurons (Annexin-V Fluorescein). The class given is cell-based. The settings on record: 0.27 nM with 100 nM ASPD, 24 hours. The procedure:
Protocol: Human primary neurons were grown on chambered slides and treated with vehicle (Control), 100 nM ASPD, ASPD+DCPLA-ME (100 nM), ASPD+bryostatin 1 (0.27 nM) and ASPD+DCPLA-ME (100 nM) or ASPD+bryostatin 1 (0.27 nM) in presence of PKC-ε inhibitor. Following 24 hours of incubation, cells were stained using Annexin-V Fluorescein to detect apoptotic cells and results are shown in FIG. 10 below. […] Data are mean±SEM of three independent experiments. (*p<0.05;** p<0.005 and *** p<0.0005).

Another assay has as its system HCN-2 cells. The experiment in a line: Synaptogenesis in HCN-2 cells. The assay is classed as cell-based, human. The conditions noted are these: 10 days. The procedure:
FIG. 9 illustrates that activation of PKC-ε induces synaptogenesis in HCN-2 cells. The HCN-2 cell line was derived from cortical tissue removed from a patient undergoing hemispherectomy for intractable seizures associated with Rasmussen's encephalitis. The cells were treated with either DCPLA-methyl ester or bryostatin-1 for 10 days. […] Thus, PKC-ε activation can induce synaptogenesis in both embryonic and adult neuronal cells.

For assay [2] the following is noted: postischemic/hypoxic treatment; Sun and Alkon 2008; cited from earlier work.
A further assay has as its target T2, PKC-α (Mus musculus, UniProt P20444).
T2 construct: The effect of bryostatin on brain PKC translocation; from tissue; host or cells: brain of C57BL/6 mice
The experiment in a line: PKC-α translocation by bryostatin in mouse brain (Western blot). The assay is classed as in vivo. The conditions noted are these: 30 and 120 minutes after administration.

Assay [3] has as its system fragile X transgenic mice. The experiment in a line: Synapses in fragile X transgenic mice. The class given is in vivo. The settings on record: 25 μg/kg body weight intraperitoneal twice a week for 3 months. The procedure: Protocol: Bryostatin (25 μg/kg body weight, intraperitoneal injection) was administered to 2 month old fragile X transgenic mice twice a week for 3 months. […] Non-treated groups (WC and TC) received the same vehicle volumes, mechanism of delivery, and frequency of administration as the treated groups.

Turning to `CCC/C=C/C=C/C(=O)O[C@H]1/C(=C/C(=O)OC)C[C@H]2C[C@H]([C@@H](C)O)OC(=O)C[C@H](O)C[C@@H]3C[C@H](OC(C)=O)C(C)(C)[C@](O)(C[C@@H]4C/C(=C/C(=O)OC)C[C@H](/C=C/C(C)(C)[C@]1(O)O2)O4)O3` [Bryostatin, bryostatin-1], the “PKC-ε translocation in mouse brain” value at PKC-ε (30 and 120 minutes after administration) is reported as “translocation was only observed by PKC-ε”. Also, the “downregulation of brain PKC-ε” value at PKC-ε (tail vein 10 and 15 μg/m2, C57BL/6N mice) is on record as “No downregulation below starting values was observed”. Further, the “time of peak brain PKC-ε activation” value at PKC-ε (tail vein 10 and 15 μg/m2, C57BL/6N mice, biphasic) is 0.5 h. In assay [1], the “mushroom spines with macular PSDs” value is recorded as “significantly increased” and the “mushroom spines with perforated PSDs” value is given as “enhanced”. For the same compound, the “protection against ASPD-induced apoptosis” value with Human primary neurons is reported as “protected against ASPD-induced apoptosis”. In the assay on HCN-2 cells, the “differentiation, neuronal branching and punctate colocalization of PSD-95 and synaptophysin” value is “significant differentiation with neuronal branching and increased punctate colocalization of PSD-95 and synaptophysin”. In assay [2], the “ischemia-induced deficits in synaptogenesis, neurotrophic activity, and spatial learning and memory” value is “effectively rescued ischemia-induced deficits in synaptogenesis, neurotrophic activity, and spatial learning and memory”. For the same compound, the “PKC-α translocation in mouse brain” value at PKC-α was “translocation was only observed by PKC-ε”. Besides, in assay [3], the “losses of postsynaptic dendritic spines” value is given as “rescued the losses of”, the “losses of presynaptic vesicles within presynaptic axonal boutons” value is listed as “rescued the losses of” and the losses of synapses entry is reported as “rescued the losses of synapses”.
